From ChEMBL document CHEMBL1201862, “PubChem BioAssay data set” (2004)
Each block holds one compound with its values, some of them ahead of it. The source made the active and inactive calls.

Legend:
Aminopeptidase N = biological target: T1, Aminopeptidase N (Plasmodium falciparum FcB1/Columbia, UniProt O96935); experiment: malaria alanyl aminopeptidase activity blockers – biochemical, fluorogenic H-Leu-NHMec substrate, 1536-well (AID 1445); design: species or system Plasmodium falciparum 3D7, 3D7
T1 sequence (O96935 whole entry): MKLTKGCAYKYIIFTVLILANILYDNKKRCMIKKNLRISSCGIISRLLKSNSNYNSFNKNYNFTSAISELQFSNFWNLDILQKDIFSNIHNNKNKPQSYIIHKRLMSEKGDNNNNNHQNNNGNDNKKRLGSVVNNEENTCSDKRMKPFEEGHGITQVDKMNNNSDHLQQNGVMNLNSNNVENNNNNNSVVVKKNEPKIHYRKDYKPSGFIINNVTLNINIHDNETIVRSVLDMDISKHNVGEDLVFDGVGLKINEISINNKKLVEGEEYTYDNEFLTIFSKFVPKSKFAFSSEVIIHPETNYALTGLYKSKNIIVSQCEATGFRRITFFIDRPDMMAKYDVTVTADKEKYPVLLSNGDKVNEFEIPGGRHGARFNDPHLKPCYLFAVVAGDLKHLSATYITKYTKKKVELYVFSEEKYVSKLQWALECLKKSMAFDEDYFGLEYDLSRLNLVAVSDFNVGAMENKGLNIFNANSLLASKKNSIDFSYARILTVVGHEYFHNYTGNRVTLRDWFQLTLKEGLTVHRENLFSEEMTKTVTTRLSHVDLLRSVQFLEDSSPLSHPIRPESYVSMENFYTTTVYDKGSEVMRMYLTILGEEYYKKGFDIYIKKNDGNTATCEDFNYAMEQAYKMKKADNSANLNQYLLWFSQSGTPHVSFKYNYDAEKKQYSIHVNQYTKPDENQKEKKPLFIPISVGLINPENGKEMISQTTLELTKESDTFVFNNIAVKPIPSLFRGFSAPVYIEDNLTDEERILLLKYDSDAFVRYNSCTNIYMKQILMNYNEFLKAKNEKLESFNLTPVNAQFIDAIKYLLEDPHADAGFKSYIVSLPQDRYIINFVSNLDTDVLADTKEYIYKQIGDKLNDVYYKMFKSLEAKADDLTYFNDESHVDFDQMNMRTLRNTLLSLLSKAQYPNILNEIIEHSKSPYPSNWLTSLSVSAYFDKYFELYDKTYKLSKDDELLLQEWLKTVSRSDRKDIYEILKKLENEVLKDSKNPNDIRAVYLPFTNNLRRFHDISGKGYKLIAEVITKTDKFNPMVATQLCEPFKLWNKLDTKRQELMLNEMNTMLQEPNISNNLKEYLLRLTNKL

H9c2 = experiment: cells; type: functional, cell-based; settings: Rattus norvegicus, H9c2, Myocardium;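 further: confirmatory concentration-response retest of ultra-high-throughput screening hits for modulation of myocardial damage; cell death induced by hydrogen peroxide oxidative stress; compound pretreatment for 60 min then peroxide exposure for 2 h; potency is for protecting the cells against peroxide damage rather than for killing them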
[1] = biological target: FAD-linked sulfhydryl oxidase ALR (Homo sapiens, UniProt P55789); experiment: ALR-catalysed DTT oxidation blockers – biochemical, H2O2 detection, luminescence, cherry-pick, dose response (AID 493248)
[2] = biological target: Glucose-6-phosphate 1-dehydrogenase (Homo sapiens, UniProt P11413); experiment: inhibition of Homo sapiens G6PD, dose series – biochemical, fluorescence, selectivity assay for P. falciparum G6PD inhibitor project, dose response (AID 504792); type: functional
Large T antigen = Large T antigen (Simian virus 40, UniProt P03070); type: functional, Betapolyomavirus macacae;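 further: Confirmatory-stage PubChem screen for compounds that inhibit SV40 T antigen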
[3] = biological target: T2, RNA-binding protein pos-1 (Caenorhabditis elegans, UniProt G5EF15); experiment: disruptors of C. elegans POS-1 RNA interaction – biochemical, fluorescence polarization, dose response (AID 1964);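 further: purified POS-1 fused to maltose binding protein made in E. coli; potency of compounds blocking POS-1 binding to fluorescent RNA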
T2 sequence (G5EF15 whole entry): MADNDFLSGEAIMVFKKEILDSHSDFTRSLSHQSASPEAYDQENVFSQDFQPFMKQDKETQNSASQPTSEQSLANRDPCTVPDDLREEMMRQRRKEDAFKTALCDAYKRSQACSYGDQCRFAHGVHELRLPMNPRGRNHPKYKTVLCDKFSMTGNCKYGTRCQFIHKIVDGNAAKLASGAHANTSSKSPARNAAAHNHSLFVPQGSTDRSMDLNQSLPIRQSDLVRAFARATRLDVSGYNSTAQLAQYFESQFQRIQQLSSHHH

[4] = biological target: T3, Zinc finger protein mex-5 (Caenorhabditis elegans, UniProt Q9XUB2); experiment: potency of MEX-5 RNA-binding blockers – biochemical, C. elegans, fluorescence polarization, dose response (AID 1960)
T3 sequence (Q9XUB2 whole entry): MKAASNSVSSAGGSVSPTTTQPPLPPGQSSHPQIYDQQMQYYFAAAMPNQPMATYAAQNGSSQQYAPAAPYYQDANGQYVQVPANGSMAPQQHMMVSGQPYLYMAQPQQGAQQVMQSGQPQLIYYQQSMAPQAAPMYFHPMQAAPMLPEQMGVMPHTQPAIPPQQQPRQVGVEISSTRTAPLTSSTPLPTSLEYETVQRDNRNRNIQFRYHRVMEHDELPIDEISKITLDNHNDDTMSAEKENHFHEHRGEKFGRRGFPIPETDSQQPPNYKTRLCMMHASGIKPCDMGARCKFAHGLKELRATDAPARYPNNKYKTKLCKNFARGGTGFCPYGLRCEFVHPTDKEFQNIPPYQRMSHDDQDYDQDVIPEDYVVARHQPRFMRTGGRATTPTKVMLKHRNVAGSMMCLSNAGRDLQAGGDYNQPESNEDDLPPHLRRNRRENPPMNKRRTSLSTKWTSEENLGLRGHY

[5] = viability of HCT116 lacking mutant beta-catenin – cell-based, human colon tumor, dose response (AID 1045); type: functional;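 further: HCT116 colon tumor cells with beta catenin knocked out; cells exposed to compound for 60 hours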
[6] = viability of PTEN-deleted HCT116 cells – cell-based, HCT116 PTEN knockout, dose response (AID 1047); type: functional;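 further: HCT116 colon tumor cells with PTEN knocked out; cells exposed to compound for 60 hours before readout; potency for loss of cell viability measured by luminescence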
Cytochrome P450 2D6 = Cytochrome P450 2D6 (Homo sapiens, UniProt P10635);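 further: CYP2D6 member of a cytochrome P450 panel assay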
[7] = test system: Streptococcus sp. 'group A'; experiment: Streptococcus pyogenes SK(-)GAS viability under kanamycin – luminescence, BacTiterGlo, confirmation, counter-screen for streptokinase expression inhibitor project, dose response (AID 1900); type: functional, organism-based
Streptococcus = experiment: GAS UMAA2166 growth inhibition – luminescence, BacTiterGlo, counter-screen for streptokinase expression inhibitor project, dose response (AID 1915); type: functional, organism-based;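 further: potency for reduction of bacterial viability or growth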
[8] = biological target: T4, Heat shock factor protein 1 (Mus musculus, UniProt P38532); experiment: enhancement of HSF1-driven luciferase signal – cell-based, NIH3T3, luminescence, dose retest, confirmation (AID 435004); type: functional;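 further: stress induced by proteasome inhibitor MG132 added 30 min after compound; luciferase reporter driven by HSF1 response element in NIH3T3 cells; actives raise luminescence as potentiators of the MG132 stress response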
T4 sequence (P38532 whole entry): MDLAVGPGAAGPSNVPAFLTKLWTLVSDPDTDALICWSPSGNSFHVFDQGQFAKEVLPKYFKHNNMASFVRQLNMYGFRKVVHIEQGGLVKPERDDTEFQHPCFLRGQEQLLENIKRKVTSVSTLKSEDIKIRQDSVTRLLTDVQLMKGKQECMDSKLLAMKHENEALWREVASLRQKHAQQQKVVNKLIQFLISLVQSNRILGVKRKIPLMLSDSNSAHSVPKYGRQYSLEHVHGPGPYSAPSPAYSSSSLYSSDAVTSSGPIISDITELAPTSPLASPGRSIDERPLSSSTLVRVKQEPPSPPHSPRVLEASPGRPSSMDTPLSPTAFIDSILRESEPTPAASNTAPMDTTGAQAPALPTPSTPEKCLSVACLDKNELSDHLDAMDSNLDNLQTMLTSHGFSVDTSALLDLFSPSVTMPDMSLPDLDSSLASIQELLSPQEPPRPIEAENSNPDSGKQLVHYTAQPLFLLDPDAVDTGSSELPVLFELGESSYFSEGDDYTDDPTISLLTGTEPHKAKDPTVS

[9] = biological target: T5, Polyadenylate-binding protein 1 (Homo sapiens, UniProt P11940); experiment: MLLE binding blockers, Cy5 peptide tracer – biochemical, fluorescence polarization, Cy5-PAM2 peptide, secondary, miRNA deadenylation inhibitor project, dose response (AID 602260); type: functional; settings: read-out: IC50_Mean
[10] = biological target: T5, Polyadenylate-binding protein 1; experiment: MLLE domain peptide-binding blockers, IC50 – biochemical, fluorescence polarization, FITC-PAM2 peptide, dose response (AID 602259); type: functional; settings: read-out: IC50_Mean

Chain of FAD-linked sulfhydryl oxidase ALR (P55789 whole entry): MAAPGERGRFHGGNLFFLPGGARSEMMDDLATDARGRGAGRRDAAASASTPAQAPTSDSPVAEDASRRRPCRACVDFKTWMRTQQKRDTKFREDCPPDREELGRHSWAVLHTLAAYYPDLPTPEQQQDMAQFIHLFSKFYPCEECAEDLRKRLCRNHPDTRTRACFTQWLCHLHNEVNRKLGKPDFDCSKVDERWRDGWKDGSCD
Chain of Glucose-6-phosphate 1-dehydrogenase (P11413 whole entry): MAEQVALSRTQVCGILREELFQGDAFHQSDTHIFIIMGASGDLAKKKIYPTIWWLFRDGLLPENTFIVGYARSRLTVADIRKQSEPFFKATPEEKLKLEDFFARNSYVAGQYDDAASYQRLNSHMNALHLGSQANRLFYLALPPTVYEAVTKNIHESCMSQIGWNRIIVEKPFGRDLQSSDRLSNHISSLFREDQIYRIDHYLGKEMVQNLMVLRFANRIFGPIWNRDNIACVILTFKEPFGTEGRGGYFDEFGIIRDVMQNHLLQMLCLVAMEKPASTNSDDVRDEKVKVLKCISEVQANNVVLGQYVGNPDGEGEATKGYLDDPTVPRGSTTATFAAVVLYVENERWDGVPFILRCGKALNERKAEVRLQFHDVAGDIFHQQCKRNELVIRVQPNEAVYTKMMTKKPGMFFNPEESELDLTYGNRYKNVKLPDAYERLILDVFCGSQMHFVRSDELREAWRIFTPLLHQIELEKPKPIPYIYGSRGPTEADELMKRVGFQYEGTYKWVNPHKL
T5 sequence (P11940 whole entry, the tested form may be a part): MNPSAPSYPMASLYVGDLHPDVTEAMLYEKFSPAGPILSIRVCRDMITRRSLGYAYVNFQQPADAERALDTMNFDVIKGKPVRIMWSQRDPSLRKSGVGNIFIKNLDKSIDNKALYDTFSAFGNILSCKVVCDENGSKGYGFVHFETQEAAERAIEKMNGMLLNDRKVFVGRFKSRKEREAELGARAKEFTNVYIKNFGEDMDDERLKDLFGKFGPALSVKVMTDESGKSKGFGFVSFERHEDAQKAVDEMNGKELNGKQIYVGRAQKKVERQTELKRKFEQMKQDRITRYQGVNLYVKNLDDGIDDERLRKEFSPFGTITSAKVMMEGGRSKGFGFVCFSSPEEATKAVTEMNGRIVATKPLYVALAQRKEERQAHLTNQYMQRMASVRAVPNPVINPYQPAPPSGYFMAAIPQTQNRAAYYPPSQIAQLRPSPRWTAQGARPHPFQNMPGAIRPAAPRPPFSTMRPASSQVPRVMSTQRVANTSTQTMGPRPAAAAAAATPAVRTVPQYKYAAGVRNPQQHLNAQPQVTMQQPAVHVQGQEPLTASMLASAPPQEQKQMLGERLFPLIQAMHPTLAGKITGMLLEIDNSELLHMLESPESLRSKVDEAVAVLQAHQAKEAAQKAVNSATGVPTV
Chain of Cytochrome P450 2D6 (P10635 whole entry): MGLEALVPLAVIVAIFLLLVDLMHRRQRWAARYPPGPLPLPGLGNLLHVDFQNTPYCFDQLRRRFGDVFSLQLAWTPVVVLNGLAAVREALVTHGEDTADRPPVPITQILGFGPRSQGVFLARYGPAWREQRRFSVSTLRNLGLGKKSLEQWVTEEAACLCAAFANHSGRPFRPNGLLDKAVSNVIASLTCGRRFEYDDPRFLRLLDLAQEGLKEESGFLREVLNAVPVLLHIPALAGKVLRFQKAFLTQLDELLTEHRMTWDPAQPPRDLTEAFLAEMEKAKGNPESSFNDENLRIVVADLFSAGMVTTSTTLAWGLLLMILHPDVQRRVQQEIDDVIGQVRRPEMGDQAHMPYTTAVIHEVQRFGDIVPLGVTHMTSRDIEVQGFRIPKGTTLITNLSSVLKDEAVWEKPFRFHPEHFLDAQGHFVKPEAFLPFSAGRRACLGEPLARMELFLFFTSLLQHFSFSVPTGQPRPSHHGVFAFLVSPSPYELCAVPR
Chain of Large T antigen (P03070 whole entry, the tested form may be a part): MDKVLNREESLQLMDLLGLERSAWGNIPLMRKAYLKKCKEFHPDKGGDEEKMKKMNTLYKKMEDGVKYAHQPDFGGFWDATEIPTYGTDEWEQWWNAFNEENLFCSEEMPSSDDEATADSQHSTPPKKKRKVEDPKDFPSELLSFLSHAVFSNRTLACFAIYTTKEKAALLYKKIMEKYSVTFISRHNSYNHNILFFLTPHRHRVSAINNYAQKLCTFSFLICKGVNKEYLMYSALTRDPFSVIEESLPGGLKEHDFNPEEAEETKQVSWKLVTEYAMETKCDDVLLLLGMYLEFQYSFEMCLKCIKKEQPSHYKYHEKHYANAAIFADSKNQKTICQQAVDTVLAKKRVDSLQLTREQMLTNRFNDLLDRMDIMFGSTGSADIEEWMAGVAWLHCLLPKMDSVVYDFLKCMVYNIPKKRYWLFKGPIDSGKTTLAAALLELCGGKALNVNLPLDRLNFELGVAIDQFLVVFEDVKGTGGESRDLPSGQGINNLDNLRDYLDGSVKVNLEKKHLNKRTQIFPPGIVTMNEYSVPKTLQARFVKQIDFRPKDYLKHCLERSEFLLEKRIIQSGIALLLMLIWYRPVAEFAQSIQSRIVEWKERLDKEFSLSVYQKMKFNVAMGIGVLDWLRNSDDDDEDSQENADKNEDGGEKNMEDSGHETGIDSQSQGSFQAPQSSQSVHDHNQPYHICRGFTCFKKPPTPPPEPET

SMILES: CC(OC(=O)CCc1nc(O)c2ccccc2n1)C(=O)NCc1ccc2c(c1)OCO2 (stereo not given)
IC50 (H9c2): > 79 µM (inactive)

SMILES: CC(=O)Nc1ccc(NS(=O)(=O)c2cc(-c3nnc(O)c4ccccc34)ccc2C)cc1
IC50 (H9c2): > 79 µM (inactive)

SMILES: NS(=O)(=O)c1ccc(CCNc2ccn3nc(-c4ccc(OCCN5CCOCC5)cc4)cc3n2)cc1
IC50 (H9c2): > 79 µM (inactive)

SMILES: COc1ccc(C(=O)Nc2sc3c(c2C(=O)O)CC(C)(C)OC3)cc1
IC50 [2]: > 80 µM (inactive)

SMILES: Oc1c(Br)cc(Cl)cc1/C=N/c1ccccc1Br
IC50 (H9c2): > 79 µM (inactive)

SMILES: COc1ccc(/C=C/C(=O)c2ccc(NC(=O)c3cccs3)cc2)cc1OC
EC50 [5]: 3.01 µM (active) | EC50 [6]: 3.5 µM (active)

SMILES: COc1ccc(N2C(=O)/C(=C/c3cccs3)NC2=S)cc1
IC50 [2]: > 80 µM (inactive)

SMILES: COc1ccc(/C=N/NC(=O)CCCOc2ccc(Cl)cc2Cl)cc1[N+](=O)[O-]
AC50 (Cytochrome P450 2D6): 10 µM (inconclusive) | EC50 [5]: 59.7 µM (active) | EC50 [6]: 281 µM (active)

SMILES: CCOC(=O)c1nc(Nc2ccc(C(C)=O)cc2)c2ccccc2n1
IC50 (H9c2): 8.56 µM (active)

SMILES: Nc1nonc1-c1nc2ccccc2n1CC(=O)N/N=C/c1ccc(-c2cccc(C(=O)O)c2)o1
EC50 [7]: 4.28 µM (active) | EC50 (Streptococcus): 4.63 µM (active) | IC50 (Aminopeptidase N): 12.5 µM (active)

SMILES: CCOC(=O)c1c(C)[nH]c(C)c1C(=O)COc1ncnc2cc([N+](=O)[O-])ccc12
IC50 (H9c2): 26.4 µM (active) | EC50 [8]: > 260 µM (inactive)

SMILES: Cn1c(O)nc2cc(Cl)cnc21
EC50 [3]: 27 µM (active) | IC50 [9]: > 66 µM (inactive) | IC50 [10]: 35.1 µM (inactive) | EC50 [4]: 24.8 µM (active)

SMILES: Cc1ccsc1/C=N/NC(=O)c1cccc(S(=O)(=O)Nc2ccccc2Cl)c1
IC50 [2]: > 80 µM (inactive)

SMILES: COc1ccc2c(c1)O[C@H](c1ccc3c(c1)OCO3)[C@@H](OC(=O)N[C@H](C)C1CCCCC1)C2=O
EC50 [5]: 10.4 µM (active) | EC50 [6]: 11.6 µM (active)

SMILES: NC(=O)c1nsc(C(=O)N(Cc2ccco2)C(C(=O)NCc2ccccc2)c2ccc(O)cc2)c1N (stereo not given)
IC50 (H9c2): > 79 µM (inactive)

SMILES: O=C(Nc1nnc(S(=O)(=O)N2CCOCC2)s1)c1cccc(Br)c1
IC50 [2]: > 80 µM (inactive)

SMILES: COc1ccc(-c2cc(=O)c3ccccc3[nH]2)cc1
IC50 (H9c2): > 79 µM (inactive)

SMILES: Cn1c(=O)c2c(nc(N/N=C/c3ccc(OC(=O)c4ccco4)cc3)n2Cc2ccccc2Cl)n(C)c1=O
EC50 [5]: 14.6 µM (active) | EC50 [6]: 13.4 µM (active)

Now from value to compound:

IC50 (Aminopeptidase N): 23.9 µM (active)
SMILES: CCOc1cc(C2C3=C(O)CCCC3=NC3=C2C(=O)CCC3)cc(Cl)c1O (stereo not given)

AC50 [1]: 3.28 µM (active)
SMILES: CCN(CC)CCC(c1ccc(N(C)C)cc1)c1c(OC)cc(OC)c2ccc(=O)oc12 (stereo not given)

IC50 (Aminopeptidase N): 26.9 µM (active)
SMILES: COc1cccc(C(=O)NC2CCN(CC(=O)NCc3ccccc3OC)CC2)c1

AC50 [1]: 7.27 µM (active)
SMILES: C=CCn1c(S)nnc1-c1cccc(OC)c1

IC50 (Aminopeptidase N): 39.1 µM (active)
SMILES: CC(=O)Nc1cccc(NC(=O)C2CCCN2C(=O)Nc2cccc(C)c2)c1 (stereo not given)

AC50 [1]: 0.867 µM (active)
SMILES: COc1cc(SC)ccc1C(=O)Nc1c(Cl)cncc1Cl

AC50 [1]: 6.23 µM (active)
SMILES: Cc1ccc(NC(=O)Nc2cccs2)cc1

IC50 (Large T antigen): > 100 µM (active) | AC50 [1]: 3.92 µM (active)
SMILES: CS(=O)(=O)N1CCc2cc(C(=O)Nc3ccc(O)cc3)ccc21

IC50 (Aminopeptidase N): 48.7 µM (active)
SMILES: O=C(Cn1c(SCc2ccccc2)nc2ccccc21)N1CCOCC1

EC50 [3]: 85.4 µM (active) | EC50 [4]: 40.8 µM (active)
SMILES: CCC(=O)OC1(C)C(=O)C=C2C=C(c3ccc(C#N)cc3)OC=C2C1=O (stereo not given)

EC50 [3]: > 300 µM (not active) | EC50 [4]: 46.8 µM (active)
SMILES: CC1(C)c2[nH]c3ccccc3c2C[C@@H]2C(=O)N(c3ccc(F)cc3F)C(=O)N21

AC50 [1]: 5.04 µM (active)
SMILES: Cc1ccc([N+](=O)[O-])cc1/N=N/c1c(C)[nH]n(C(N)=S)c1=O

EC50 [3]: > 300 µM (not active) | EC50 [4]: > 300 µM (not active)
SMILES: CC1(OC(=O)c2cnc3ccccc3n2)C(=O)C=C2C=C(C3CC3)OC=C2C1=O (stereo not given)

IC50 (Aminopeptidase N): 41 µM (active)
SMILES: O=C(O)CSc1c(O)nc2ccc(Cl)cc2c1-c1ccccc1

AC50 [1]: 1.44 µM (active)
SMILES: CC(C)n1cnc2cc(NCc3ccccc3O)ccc21

IC50 (Aminopeptidase N): 65.6 µM (active)
SMILES: CNC(=O)c1cc2c(=O)n3cccc(C)c3nc2n(C(C)C)c1=N

AC50 [1]: 0.33 µM (active)
SMILES: CCCS(=O)(=O)N1CCCC(C(=O)NCCN(CC)c2ccccc2)C1 (stereo not given)
